Measurements: patent US11952328B2, “Selective ship inhibitors for treating disease” (THE RESEARCH FOUNDATION FOR THE STATE UNIVERSITY OF NEW YORK, priority 2018, dated 2024)

Tests used:
SHIP1 = biological target: T1, SHIP1 (Homo sapiens, UniProt Q92835); settings: Brooks et al. 2010; cited from earlier work
T1 sequence (Q92835 1-1189): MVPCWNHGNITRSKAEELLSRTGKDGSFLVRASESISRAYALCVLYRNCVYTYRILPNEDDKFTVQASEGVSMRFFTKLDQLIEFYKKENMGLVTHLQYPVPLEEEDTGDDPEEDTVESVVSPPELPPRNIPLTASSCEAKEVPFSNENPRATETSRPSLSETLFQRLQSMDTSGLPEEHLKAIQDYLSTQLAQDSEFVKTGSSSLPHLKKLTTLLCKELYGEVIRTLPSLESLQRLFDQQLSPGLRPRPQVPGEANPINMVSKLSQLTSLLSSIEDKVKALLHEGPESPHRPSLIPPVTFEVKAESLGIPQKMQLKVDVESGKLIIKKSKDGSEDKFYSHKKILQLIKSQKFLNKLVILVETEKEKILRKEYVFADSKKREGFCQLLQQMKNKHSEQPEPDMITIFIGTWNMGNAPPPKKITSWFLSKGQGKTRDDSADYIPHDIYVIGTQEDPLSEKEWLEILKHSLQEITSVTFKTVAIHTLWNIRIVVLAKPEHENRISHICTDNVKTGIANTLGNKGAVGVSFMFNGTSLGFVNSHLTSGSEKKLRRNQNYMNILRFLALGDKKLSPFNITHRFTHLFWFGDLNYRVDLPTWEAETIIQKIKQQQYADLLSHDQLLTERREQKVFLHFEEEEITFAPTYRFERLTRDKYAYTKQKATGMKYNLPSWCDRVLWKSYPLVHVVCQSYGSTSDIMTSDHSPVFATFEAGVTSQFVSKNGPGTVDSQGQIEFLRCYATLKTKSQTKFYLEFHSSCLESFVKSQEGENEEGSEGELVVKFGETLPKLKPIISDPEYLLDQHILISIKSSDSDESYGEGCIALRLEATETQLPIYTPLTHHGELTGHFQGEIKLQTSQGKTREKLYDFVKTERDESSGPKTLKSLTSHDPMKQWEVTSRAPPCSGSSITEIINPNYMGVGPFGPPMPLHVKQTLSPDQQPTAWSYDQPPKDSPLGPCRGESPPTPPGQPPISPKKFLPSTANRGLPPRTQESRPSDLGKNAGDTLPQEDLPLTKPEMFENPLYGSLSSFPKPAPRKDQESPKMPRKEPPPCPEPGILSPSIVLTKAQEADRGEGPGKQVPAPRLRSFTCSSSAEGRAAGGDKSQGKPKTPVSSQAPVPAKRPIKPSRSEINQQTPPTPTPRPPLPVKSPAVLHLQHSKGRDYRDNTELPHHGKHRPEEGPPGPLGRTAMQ

NK cell compartment = settings: uninterrupted, extended-duration treatment, six days each week; Fernandes et al. 2015; cited from earlier work
CD8+ T cells = experiment: CD8 T cell activation (CD69) and degranulation (CD107a) after two-day in vivo treatment; design: species or system mice
Protocol: FIGS. 3B-3E show activation of NK cells and T cells following exposure to the SHIP1 inhibitor 3AC in vivo. NK cells from two-day 3AC- or vehicle-treated mice were stimulated by incubation on uncoated plates, on plates coated with anti-NK1.1, anti-NKp46, or anti-NKG2D antibody, or on uncoated plates but in the presence of PMA and ionomycin. Representative flow plots (FIG. 3B) and box and whisker plots (FIG. 3C) show the frequency of NK cell production of IFNγ determined by intracellular flow cytometry. […] Anti-CD107a (LAMP-1) PE antibody was added for the final 5 hours of incubation. Degranulation of CD8+ T cells was determined by analysis of CD107a expression by flow cytometry. NK cells are defined as NK1.1+CD3ε− and CD8+ T cells as NK1.1-CD3ε+CD8+CD4−. Graphs are representative of at least two independent experiments with at least four 3AC- and vehicle-treated mice per group (FIGS. 3B-3C) or pooled data from two independent experiments is shown (FIGS. 3D-3F). FIG. 3C (unstim: n=4, p=0.0962, Unpaired t test with Welch's correction. NK1.1: n=4, p=0.0038, Two-tailed student's T test. NKG2D: n=4, p=0.0450, Two-tailed student's T test. NKp46: n=4, p=0.0144, Two-tailed student's T test. PMA: p=0.2945, Two-tailed student's T test). FIG. 3D (n=8, p=0.0153, Unpaired T test with Welch's correction). FIG. 3E (n=8, p=0.0009, Two-tailed student's T test) FIG. 3F (n=9, p=0.0083, Two-tailed student's T test).
To determine if SHIP inhibitors are also capable of activating the other major type of cytotoxic lymphocyte the responsiveness of CD8 T cells following the same, short-term, 3AC treatment was examined.

[1] = splenic CD8+ T cells, two-day 3AC vs vehicle

With CC(C)CCC[C@@H](C)[C@H]1CC[C@H]2[C@@H]3CCC4C[C@H](N)CC[C@]4(C)[C@H]3CC[C@]12C (stereo partly drawn) [Compound 3AC, 3-α-aminocholestane] as the compound, how does the “selectivity for SHIP1” value (SHIP1) read?
The value was “high degree of selectivity”.

And the “NK cell compartment function (acute rejection of MHC-I mismatched BM graft)” value (NK cell compartment)?
Its value is “disabled NK cell compartment”.

What about the “percentage of activated CD8 T cells (CD69 expression)” value (CD8+ T cells; [1]) of the same compound?
The value was “significantly increased”.

And the “surface expression of CD69 amongst CD8 T cells” value (CD8+ T cells; [1])?
Its value is “increased”.

And the “LAMP-1 (CD107a) expression of CD8 T cells (degranulation)” value (CD8+ T cells; splenic CD8 T cells, crosslinking of TcR and CD28 (anti-CD3, anti-CD28) overnight)?
The value was “increased frequency”.
